A short description of data set [1]: Aqueous kinetic solubility by laser nephelometry. It is filed as physicochemical. The conditions noted are these: for solubility kinetic: MilliQ water with 2.5% DMSO. On the procedure: The aqueous solubility of the test compounds was measured using laser nephelometry.
Compounds were subject to serial dilution from 10 mM to 0.5 mM in DMSO. An aliquot was then mixed with MilliQ water to obtain an aqueous dilution plate with a final concentration range of 250 – 12 µM, with a final DMSO concentration of 2.5%. Triplicate aliquots were transferred to a flat-bottomed polystyrene plate which was immediately read on the NEPHELOstar (BMG Lab Technologies). The amount of laser scatter caused by insoluble particulates (relative nephelometry units, RNU) was plotted against compound concentration using a segmental regression fit, with the point of inflection being quoted as the compounds

Data set [2] is described as follows: Intrinsic clearance in mouse liver microsomes. It is filed as in vitro ADME. The conditions noted are these: 0.5 µM compound. On the procedure: (§1) compounds against known CHI values. The CHI value of test compounds was then calculated according to their retention time.
(§2) Test compounds were prepared as 0.25 mM solutions in 50:50 acetonitrile:water and analysed by reversed-phase HPLC-UV (wavelength 254 nm) using a ACE Excel 3 SuperC18, 3 µm, 50 x 2.1 mm column with a gradient of aqueous phase (10 mM ammonium acetate, pH 7.4) and mobile phase (acetonitrile).
(§3) Intrinsic clearance (Cli) experiments
(§4) Test compound (0.5 µM) was incubated with female CD1 mouse or human (mixed gender) liver microsomes (Xenotech LLCTM; 0.5 mg/mL 50mM potassium phosphate buffer, pH7.4) and the reaction initiated with addition of excess NADPH (8 mg/mL 50 mM potassium phosphate buffer, pH7.4). Immediately, at time zero, then at 3, 6, 9, 15 and 30 minutes an aliquot (50 µL) of the incubation mixture was removed and mixed with acetonitrile (100 µL) to stop the reaction. Internal standard was added to all samples, the samples centrifuged to sediment precipitated protein and the plates then sealed prior to […] analysis using […]
(§5) a Xevo TQ-S Micro (Waters corporation, USA).
(§6) XLfit (IDBS, UK) was used to calculate the exponential decay and consequently the rate constant (k) from the ratio of peak area of test compound to internal standard at each timepoint. The rate of intrinsic clearance (CLi) of each test compound was then calculated using the following calculation: […]
Background: Liver microsomes are a subcellular fraction often used to study metabolism.

A short description of data set [3]: Intrinsic clearance in human liver microsomes. As to conditions: 0.5 µM compound. It is filed as in vitro ADME. On the procedure: as §1, §2, §3, §4, §5, §6
The next data set is described as follows: Plasma stability, mouse. Format: in vitro ADME. As to conditions: 10 µM compound, 37 °C; for half-life at 10 µM: mouse, plasma, pH 7.4, read-out: Plasma stability T 1/2, Mouse. On the procedure:
(§7) Test compound (10 µM) was incubated in pre-warmed plasma at 37 ᵒC (that is buffered to pH 7.4 in ratio of 70:30 plasma to buffer). Immediately, at time zero, then at 30, 60, 120, and 180 min, a 50 µL aliquot of the incubation mixture was removed and mixed with 200 µL acetonitrile containing Donepezil as the internal standard (50 ng/ml) to stop the reaction. The samples were centrifuged to sediment the precipitated protein and the plates then sealed prior to UPLC-MS/MS analysis using a Xevo TQ-S Micro (Waters Corporation, USA).
(§8) XLfit (IDBS, UK) was used to calculate the exponential decay and consequently the rate constant (k) from the ratio of peak area of test compound to internal standard at each time point. The half-life was calculated for each test compound from the rate by using the […]
(§9) Parallel Artificial Membrane Permeability Assay (PAMPA)
(§10) PAMPA was performed using a 96-well pre-coated BD Gentest™ PAMPA plate (BD Biosciences, U.K.). Each well was divided into two chambers; donor and acceptor, separated by a lipid-oil-lipid tri-layer constructed in a porous filter. The effective permeability, Pe, of the compound was measured at pH 7.4. Stock solutions (5 mM) of the compound were prepared in DMSO. The compound was then further diluted to 10 µM in phosphate buffered […]
(§11) saline at pH 7.4. […] The compound […]
(§12) dissolved in phosphate buffered saline was then added to the donor side of the membrane and phosphate buffered saline without compound was added to the acceptor side. The PAMPA plate was left at room temperature for 5 h. After which time, an aliquot (100 µL) was then

A short description of another data set: Plasma stability, human. It is filed as in vitro ADME. As to conditions: 10 µM compound, 37 °C; for half-life at 10 µM: human, plasma, pH 7.4, read-out: Plasma stability T 1/2, Human. On the procedure:
as §7, §8, §9, §10, §11, §12

The next data set has as its target T1, BRD9 (Homo sapiens, UniProt Q9H8M2).
T1 construct: Western blot analysis of BRD9 and BRD7 levels after treatment of HeLa cells; endogenous in cells; host or cells: HeLa
T1 sequence (Q9H8M2 1-597): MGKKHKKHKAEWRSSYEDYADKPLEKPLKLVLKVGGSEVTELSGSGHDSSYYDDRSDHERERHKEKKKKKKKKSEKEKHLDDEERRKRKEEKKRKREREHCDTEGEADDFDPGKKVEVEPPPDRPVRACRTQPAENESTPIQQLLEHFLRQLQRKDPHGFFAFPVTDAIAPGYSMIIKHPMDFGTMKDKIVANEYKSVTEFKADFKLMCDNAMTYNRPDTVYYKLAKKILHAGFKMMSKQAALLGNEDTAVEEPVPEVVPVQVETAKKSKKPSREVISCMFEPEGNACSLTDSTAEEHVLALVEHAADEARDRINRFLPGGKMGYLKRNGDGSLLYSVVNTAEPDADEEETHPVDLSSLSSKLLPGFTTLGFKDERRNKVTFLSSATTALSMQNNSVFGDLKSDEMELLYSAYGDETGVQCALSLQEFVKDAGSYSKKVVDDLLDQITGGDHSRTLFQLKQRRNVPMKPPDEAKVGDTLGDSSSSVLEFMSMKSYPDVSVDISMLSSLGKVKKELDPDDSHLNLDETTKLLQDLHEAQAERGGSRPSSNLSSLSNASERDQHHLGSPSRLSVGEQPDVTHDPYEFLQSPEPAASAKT
Kind of data set: Western blot of BRD9 levels in HeLa cells after compound treatment. Format: cell-based. The conditions noted are these: 1 μM compound; for remaining activity at 1 µM: Table 2, % of total protein remaining relative to 0.1% DMSO vehicle, HeLa cell lysates; for BRD9 degradation: HeLa cells. (In general: Immunoblotting shows a protein as a band on a membrane.)

A further data set has as its system EOL-1 cells. Kind of data set: Cell viability/proliferation (cellular ATP, CellTiterGlo) in EOL-1. It is filed as cell-based. As to conditions: Homo sapiens, EOL1; EOL-1, text; read-out: EC50 (cytotoxicity, cell viability).
For another data set, the system named is A-204 cells. Kind of data set: Cell viability/proliferation (cellular ATP, CellTiterGlo) in A-204. The conditions noted are these: Homo sapiens, A204; A-204 (printed A-402); read-out: EC50 (cytotoxicity, cell viability). It is filed as cell-based. On the procedure: A-204 cells (1 × 10^3) were seeded per well of 384-well plates. After overnight incubation, compounds were added to the cells at logarithmic dose series using the HP digital dispenser D300 (Tecan), normalizing for added DMSO. 1 day and 8 days after seeding cellular ATP content was measured using CellTiterGlo (Promega). Measurements after 8 days were divided by the measurement after 1 day (i.e., the T0 plate) to derive fold proliferation. Data were analyzed with GraphPad Prism software to obtain EC50 values.
For orientation: Cellular ATP, detected with luciferase, serves as a proxy for viable cell number.

Converted amounts (≈) assume the structure as drawn. Like-named read-outs stand apart in the source and are kept apart here.

Regarding `COc1cc(-c2cn(C)c(=O)c3cnccc23)cc(OC)c1CN1CCN(CCCCCOc2cc(-c3scnc3C)ccc2CNC(=O)[C@@H]2C[C@H](O)CN2C(=O)[C@@H](NC(=O)C2(F)CC2)C(C)(C)C)CC1` [cisVZ185], the kinetic solubility – broadly, solubility judged after dilution from a stock solution rather than from solid – in data set [1] was found to be 79 µM (≈ 78.6 µg/mL). For the same compound, the “Microsomal stability (intrinsic clearance), Mouse” value in data set [2] came to 2.4 mL/min/g liver. The “Microsomal stability (intrinsic clearance), Human” value in data set [3] is 8.1 mL/min/g liver. Further, the half-life at 10 µM in the data set “Plasma stability, mouse” is over 3 h; in “Plasma stability, human”, over 3 h.
Turning to `COc1cc(-c2cn(C)c(=O)c3cnccc23)cc(OC)c1CN1CCN(CCOCCOCCOc2cc(-c3scnc3C)ccc2CNC(=O)[C@@H]2C[C@@H](O)CN2C(=O)[C@@H](NC(=O)C2(F)CC2)C(C)(C)C)CC1` [Compound 26, (2S,4R)-N-(2-(2-(2-(2-(4-(2,6-Dimethoxy-4-(2-methyl-1-oxo-1,2-dihydro-2,7-naphthyridin-4-yl)benzyl)piperazin-1-yl)ethoxy)ethoxy)ethoxy)-4-(4-methylthiazol-5-yl)benzyl)-1-((S)-2-(1-fluorocyclopropane-1-carboxamido)-3,3-dimethylbutanoyl)-4-hydroxypyrrolidine-2-carboxamide], at BRD9 (4 h, read-out: BRD9 4 h (%)), the remaining activity at 1 µM was 14%.
Turning to `COc1cc(-c2cn(C)c(=O)c3cnccc23)cc(OC)c1CN1CCN(CCCCCOc2cc(-c3scnc3C)ccc2CNC(=O)[C@@H]2C[C@@H](O)CN2C(=O)[C@@H](NC(=O)C2(F)CC2)C(C)(C)C)CC1` [Compound 51, (2S,4R)-N-(2-((5-(4-(2,6-Dimethoxy-4-(2-methyl-1-oxo-1,2-dihydro-2,7-naphthyridin-4-yl)benzyl)piperazin-1-yl)pentyl)oxy)-4-(4-methylthiazol-5-yl)benzyl)-1-((S)-2-(1-fluorocyclopropane-1-carboxamido)-3,3-dimethylbutanoyl)-4-hydroxypyrrolidine-2-carboxamide], the EC50 (in general, the concentration needed to bring the measured effect to its halfway point) in the data set with EOL-1 cells was determined as 3 nM. In addition, the EC50 with A-204 cells was found to be 40 nM. Further, the “Aqueous Solubility (Kinetic)” value in data set [1] (2.5% DMSO, listed as VZ185) is reported as about 100 µM. Also, the solubility (kinetic) in data set [1] was found to be 85 µM (≈ 84.6 µg/mL). In “Plasma stability, mouse”, the “Plasma stability T 1/2, Mouse” value was “high stabilities” and the half-life at 10 µM is over 3 h. For the same compound, in “Plasma stability, human”, the “Plasma stability T 1/2, Human” value is “high stabilities” and the half-life at 10 µM was over 3 h.
For `COc1cc(-c2cn(C)c(=O)c3cnccc23)cc(OC)c1CN1CCN(CCOCCOCC(=O)N[C@H](C(=O)N2C[C@H](O)C[C@H]2C(=O)NCc2ccc(-c3scnc3C)cc2)C(C)(C)C)CC1` [Compound 5, (2S,4R)-1-((S)-2-(2-(2-(2-(4-(2,6-Dimethoxy-4-(2-methyl-1-oxo-1,2-dihydro-2,7-naphthyridin-4-yl)benzyl)piperazin-1-yl)ethoxy)ethoxy)acetamido)-3,3-dimethylbutanoyl)-4-hydroxy-N-(4-(4-methylthiazol-5-yl)benzyl)pyrrolidine-2-carboxamide], the remaining activity at 1 µM on BRD9 (16 h, read-out: BRD9 16 h (%)) was 89%. Besides, the BRD9 degradation entry was “at most 20%” at BRD9 (4 h) and at most 30% at BRD9 (16 h).
